Patent publication EP0693481A1, “Prodrugs of 5,5-diphenylhydantoin as antiepileptic and antiarrhythmic agents” (LABORATORIOS RUBIO, S.A., priority 1994, dated 1996)
Where a name gives a salt, the structure may show the parent alone. Read-outs that look alike come from different tables or passages of the source.

Assay: Hydrolisis rate of prodrug in whole rat blood (Franz-type cell, phenytoin measured by HPLC)
Format: in vitro ADME
Details: for hydrolisis (rate, in words): blood hydrolisis, summary statement on Tables 1 and 2; for metabolised at 10 s: time 0.17 min; for metabolised at 20 s: time 0.33 min; for metabolised at 0.5 min: time 0.50 min; for metabolised at 0.025 h: time 1.5 min; for metabolised at 0.8 h: time 48.00 min; for metabolised at 15 s: time 0.25 min; for metabolised at 0.25 h: time 15.00 min; for metabolised at 1 h: time 60.00 min; for metabolised at 2.45 h: time 147.00 min; for metabolised at 3.15 h: time 189.00 min
Method: To study the hydrolisis of prodrugs in blood, Franz-type permeation cells of the company Crown Glass Co. Somerville, N.Y. have been used. The receiving compartment is used which allows for water recirculation using a glass packet in order to keep the system at 37 °C. This compartment is equipped with magnetic stirring.
For the experiment, male Wistar albino rats weighing 200-275 g, bred and selected at the stabularium of the School of Pharmacy of Barcelona, were used. The animals were fasted for 20 hours before starting the trials, but they were given water ad libitum throughout this period. In order to avoid coprophagy, the animals were placed in cages with a broad wire netting bottom.
After anesthesizing the rat, blood was drawn by cardiac puncture. A known amount of blood (10 ml) containing a prodrug concentration of 40 µg/ml was introduced through the lateral tubes of the receiving compartment of Franz cells. The system was kept at 37 °C and stirred magnetically, samples were taken (1 ml) and phenytoin was measured in each of them by HPLC.
The analytical methods were validated prior to estimating phenytoin levels in blood samples.
As in the previous case, three replicates of the tested product were used.

[1] = rat, whole blood, whole rat blood, 37 °C, prodrug 40 µg/ml, mean of replicates, read-out: % HYDROLISIS IN WHOLE BLOOD, m ± s.d.
[2] = rat, whole blood, whole rat blood, 37 °C, prodrug 40 µg/ml, replicate 1, read-out: % HYDROLISIS IN WHOLE BLOOD
[3] = rat, whole blood, whole rat blood, 37 °C, prodrug 40 µg/ml, replicate 2, read-out: % HYDROLISIS IN WHOLE BLOOD
[4] = rat, whole blood, whole rat blood, 37 °C, prodrug 40 µg/ml, replicate 3, read-out: % HYDROLISIS IN WHOLE BLOOD
[5] = rat, whole blood, whole rat blood, 37 °C, mean of replicates, read-out: % HYDROLISIS IN WHOLE BLOOD, m ± s.d.
[6] = rat, whole blood, whole rat blood, 37 °C, replicate 1, read-out: % HYDROLISIS IN WHOLE BLOOD
[7] = rat, whole blood, whole rat blood, 37 °C, replicate 2, read-out: % HYDROLISIS IN WHOLE BLOOD
[8] = rat, whole blood, whole rat blood, 37 °C, replicate 3, read-out: % HYDROLISIS IN WHOLE BLOOD

For `CN1CCN(CC(=O)OCN2C(=O)NC(c3ccccc3)(c3ccccc3)C2=O)CC1` [IX, 5,5-diphenyl-3-[(4-methylpiperazinyl)-acetoxymethyl]hydantoin dihydrochloride], the “hydrolisis (rate, in words)” value was “virtually instantaneous”, the metabolised at 10 s [1] was 100 ± 7.96% and the metabolised at 10 s [2] was 99%. The metabolised at 10 s [3] was 109%, the metabolised at 10 s [4] was 93.1% and the metabolised at 20 s [1] was 102 ± 20.8%. The metabolised at 20 s [2] was 85.6%, the metabolised at 20 s [3] was 95.8% and the metabolised at 20 s [4] was 126%. The metabolised at 0.5 min [1] was 102 ± 13.2%, the metabolised at 0.5 min [2] was 92.7% and the metabolised at 0.5 min [3] was 96.5%. The metabolised at 0.5 min [4] was 117%, the metabolised at 0.025 h [1] was 104 ± 7.14% and the metabolised at 0.025 h [2] was 95.8%. The metabolised at 0.025 h [3] was 108%, the metabolised at 0.025 h [4] was 109% and the metabolised at 5 min [1] was 109%. The metabolised at 5 min [2] was 105%, the metabolised at 5 min [3] was 117% and the metabolised at 5 min [4] was 105%. For the same compound, the metabolised at 16 min [1] was 115 ± 5.79%, the metabolised at 16 min [3] was 119% and the metabolised at 16 min [4] was 110%. The metabolised at 0.8 h [1] was 100 ± 3.91%, the metabolised at 0.8 h [2] was 97.2% and the metabolised at 0.8 h [3] was 99.4%. It also gave a metabolised at 0.8 h [4] of 105% and a metabolised at 115 min (rat, whole blood, whole rat blood, 37 °C, prodrug 40 µg/ml, time 115.00 min, replicate 2) of 99.7%.

For `O=C1NC(c2ccccc2)(c2ccccc2)C(=O)N1COP(=O)(O)O` [XI, disodium salt of 5,5-diphenyl-3-(hydroxymethyl]hydantoin phosphoric ester], the “hydrolisis (rate, in words)” value was “much more slower”, the metabolised at 0.5 min [1] was 8.47 ± 2.79% and the metabolised at 0.5 min [2] was 6.37%. For the same compound, the metabolised at 0.5 min [3] was 7.41%, the metabolised at 0.5 min [4] was 11.7% and the metabolised at 15 s [5] was 4.72 ± 1.84%. The metabolised at 15 s [6] was 3.42%, the metabolised at 15 s [7] was 6.03% and the metabolised at 2 min [5] was 15.1 ± 7.72%. For the same compound, the metabolised at 2 min [6] was 10.5%, the metabolised at 2 min [7] was 10.8% and the metabolised at 2 min [8] was 24%. For the same compound, the metabolised at 7 min [5] was 33.2 ± 12.3%, the metabolised at 7 min [6] was 21.4% and the metabolised at 7 min [7] was 32%. It also gave a metabolised at 7 min [8] of 46%, a metabolised at 0.25 h [5] of 59.6 ± 29.8% and a metabolised at 0.25 h [6] of 38.9%. The metabolised at 0.25 h [7] was 46.1%, the metabolised at 0.25 h [8] was 93.8% and the metabolised at 1 h [5] was 77.7 ± 4.6%. For the same compound, the metabolised at 1 h [6] was 74.5%, the metabolised at 1 h [7] was 81% and the metabolised at 2.45 h [5] was 81.31 ± 0.47%. For the same compound, the metabolised at 2.45 h [6] was 81%, the metabolised at 2.45 h [7] was 81.7% and the metabolised at 3.15 h [5] was 88.5 ± 13.1%. It also gave a metabolised at 3.15 h [6] of 79.3% and a metabolised at 3.15 h [7] of 97.7%.
